From publication PMC8522729 (Antimicrobial Agents and Chemotherapy, 2021)
Converted amounts (≈) assume the structure as drawn. Like-named read-outs stand apart in the source and are kept apart here.

What was measured:
[1] = system: M. tuberculosis H37Rv; parameters: method as in PMID 19299584; conditions: cited from earlier work
[2] = cited from earlier work
[3] = cited from earlier work; remark: listed apart in the source
[4] = system: M. tuberculosis Kurono; parameters: method as in PMID 32229496; conditions: chronic ICR mouse model, cited from earlier work
[5] = system: M. tuberculosis Erdman-infected C3HeB/FeJ mice; test: Efficacy in the C3HeB/FeJ mouse tuberculosis model (CFU in lungs and spleens, kill rates); type: in vivo; conditions: for dose at which maximal efficacy in spleens was achieved / LME (lowest dose with the maximum effect) in lungs: 8 weeks of treatment, OPC-167832 QD; for dose at which maximal efficacy in spleens was achieved: TBA-7371 BID (not yet achieved); for LME (lowest dose with the maximum effect) in lungs: TBA-7371 BID, PBTZ169 QD; for average lung CFU reduction compared to untreated controls: 5 of 7 days per week; for CFU reduction in spleen: spleens; for CFU reduction in spleen / effect on lung CFU compared to pretreatment control and untreated controls: 4 weeks of treatment, all doses; for effect on lung CFU compared to pretreatment control and untreated controls: P > 0.05
[6] = C3HeB/FeJ, mouse, in vivo
[7] = system: M. tuberculosis Erdman; test: MIC by broth microdilution (MABA), with and without 4% huSA (serum-shift assay); conditions: for Serum shift (fold increase): M. tuberculosis Erdman, MIC with 4% huSA vs without; for protein binding by this assay (MIC shift): indicated by 8-fold MIC shift with 4% huSA
[8] = system: M. tuberculosis; conditions: QD, cited from earlier work
[9] = system: nonreplicating bacteria in rabbit caseum; test: Caseum MBC assay; type: cell-based, Mycobacterium tuberculosis; conditions: 7 days
[10] = Plasma, lung and lesion drug levels (LC-MS/MS and LCM-LC-MS/MS)
[11] = system: M. tuberculosis; conditions: cited from earlier work
[12] = system: M. tuberculosis; conditions: chronic BALB/c mouse model, cited from earlier work
[13] = system: pulmonary pathology of M. tuberculosis-infected C3HeB/FeJ mice; test: Pulmonary histopathology (pathologist scoring and LIRA); type: in vivo; conditions: 100 mg/kg QD, 8 weeks
[14] = system: M. tuberculosis H37Rv; test: MIC by broth microdilution (MABA), with and without 4% huSA (serum-shift assay); conditions: MIC with 4% huSA vs without
[15] = system: M. tuberculosis; parameters: method as in PMID 24957839, PMID 24215368, PMID 24874895; conditions: acute BALB/c mouse model; 100 mg/kg QD; cited from earlier work
[16] = lungs, 8 weeks, all three OPC-167832 groups, TBA-7371 medium and high dose, PBTZ169 medium and high dose, P < 0.05 Dunnett
[17] = C3HeB/FeJ, mouse, in vivo, 5 mg/kg

**Q.** Which results are given for `C[C@H]1COC2(CCN(c3nc(=O)c4cc(C(F)(F)F)cc([N+](=O)[O-])c4s3)CC2)O1` [BTZ043]?
**A.** MIC [1]: 1 ng/mL (≈ 0.00232 µM); plasma protein binding [2]: > 99.8%; selectivity index [3]: > 10,000

**Q.** Which results are given for `O=C1CCc2c(OC[C@]3(O)CCN(c4c(F)cc(Cl)cc4F)C[C@H]3O)ccc(F)c2N1` [OPC-167832]?
**A.** CFU reduction in lungs versus the start of treatment ([4]; 5 mg/kg for 4 weeks): > 1.5 log10 CFU; dose showing bactericidal activity [4]: 0.625 mg/kg; dose at which maximal efficacy in spleens was achieved [5]: 5 mg/kg; LME (lowest dose with the maximum effect) in lungs [5]: 5 mg/kg; average lung CFU reduction compared to untreated controls ([5]; 8 weeks, 5 and 20 mg/kg QD): 3 log10 CFU; efficacy in lungs versus the pretreatment control group ([5]; lungs, 4 weeks, 20 mg/kg QD, P = 0.04 Dunnett): statistically significant efficacy; lung bacterial load compared to the untreated control group ([5]; lungs, 4 weeks, all three dose groups (1.25, 5, 20 mg/kg QD), P = 0.002 to 0.03 Dunnett): statistically significant reduction in lung bacterial load; lung bacterial load compared to the untreated control group [5, 16]: statistical significant reduction in the lung bacterial load; CFU reduction in spleen [5]: dose-dependent CFU reduction; concentration in caseum (acellular) at T1, fold above the MIC+huSA ([6]; 1 h): 12 fold; concentration in caseum at T1, fold in excess of the MIC+huSA ([6]; 1 h): 20 fold; plasma and lung concentration at T1, fold above the MIC+huSA ([6]; 1 h): 75-85 fold; Serum shift (fold increase) [7]: 8 fold; protein binding by this assay (MIC shift) [7]: ~88%; MED99 (minimal effective dose giving 2-log reduction in lung bacterial load vs untreated) [8]: 5 mg/kg; MBC ([9]; Mycobacterium tuberculosis, 168 h, rabbit caseum, read-out: caseum MBC90): 500 µg/mL (≈ 1090 µM); reduction from treatment start in caseum ([9]; highest concentration tested (1 mg/ml), P = 0.0005): 1 log; drug level in caseous core / cellular-caseum interface at plasma Cmax, fold in excess of the MIC+huSA ([10]; 5 mg/kg QD, 2.5 weeks): approximately 21 fold; Cmax at 1 h [10, 17]: 35 ng/g; concentration at 1 h [10, 17]: 190 ng/g; concentration at 24 h [10, 17]: 34 to 108 ng/g

**Q.** With `O=c1nc(N2CCN(CC3CCCCC3)CC2)sc2c([N+](=O)[O-])cc(C(F)(F)F)cc12` [PBTZ169, macozinone] as the compound, how does the “LME (lowest dose with the maximum effect) in lungs” value [5] read?
**A.** The value was 50 mg/kg.

**Q.** And the “average lung CFU reduction compared to untreated controls” value ([5]; 8 weeks, 50 and 100 mg/kg QD)?
**A.** The value was 1.5 log10 CFU.

**Q.** And the “effect on lung CFU compared to pretreatment control and untreated controls” value ([5]; lungs)?
**A.** The value was “not statistically significant”.

**Q.** What about the “lung bacterial load compared to the untreated control group” value [5, 16] of the same compound?
**A.** The value was “statistical significant reduction in the lung bacterial load”.

**Q.** What about the “CFU reduction in spleen” value [5] of the same compound?
**A.** The value was “no statistically significant CFU reduction”.

**Q.** And the “plasma and lung concentration at T1, fold above the MIC+huSA” value ([6]; 15 min)?
**A.** Its value is 11-20 fold.

**Q.** What about the “MIC fold lower versus BTZ043” value [11] of the same compound?
**A.** The value was 3 fold.

**Q.** And the “Serum shift (fold increase)” value [7]?
**A.** Its value is 8 fold.

**Q.** And the “protein binding by this assay (MIC shift)” value [7]?
**A.** Its value is roughly 88%.

**Q.** And the “MED99 (minimal effective dose giving 2-log reduction in lung bacterial load vs untreated)” value ([8]; published or reported mouse infection studies, no reference given)?
**A.** The value was 50 mg/kg.

**Q.** And the “CFU reduction in lungs versus untreated controls” value ([12]; after 4 weeks of treatment)?
**A.** Its value is 1 log10 CFU.

**Q.** What about the “additional CFU reduction in lungs versus BTZ043” value [12] of the same compound?
**A.** Its value is 0.5 log10 CFU.

**Q.** And the “additional CFU reduction in spleens versus BTZ043” value [12]?
**A.** The value was 1 log10 CFU.

**Q.** And the “type III cellular lesions, lung involvement (LIRA)” value [13]?
**A.** Its value is “more than 35%”.

**Q.** What about the “type III lesion lung involvement relative to untreated control group (LIRA)” value [13] of the same compound?
**A.** The value was “more than 2 fold”.

**Q.** And the selectivity index [3]?
**A.** Its selectivity index is > 10,000.

**Q.** What about the “Cmax in the cellular-caseum interface and caseum, fold lower than plasma or whole lung Cmax” value ([10]; 50 mg/kg QD, 2.5 weeks) of the same compound?
**A.** The value was 10 fold.

**Q.** What about the “concentration in plasma and lungs at T1 (Cmax)” value ([10]; 50 mg/kg QD, 2.5 weeks, T1 15 min) of the same compound?
**A.** Its value is “around 1 μg/ml or μg/g”.

**Q.** With `O=[N+]([O-])c1cn2c(n1)OC[C@@H](OCc1ccc(OC(F)(F)F)cc1)C2` [Pretomanid, pretomanid] as the compound, how does the “Serum shift (fold increase)” value [7] read?
**A.** Its value is 4 fold.

**Q.** And the “Serum shift (fold increase)” value [14]?
**A.** Its value is 4 fold.

**Q.** Which “dose at which maximal efficacy in spleens was achieved” value [5] does the source give for `COc1ncnc(Cn2cc(C(=O)NCCO)c3ncc(C)cc32)c1C` [TBA-7371] here?
**A.** Its value is no less than 200 mg/kg.

**Q.** What about the “LME (lowest dose with the maximum effect) in lungs” value [5] of the same compound?
**A.** Its value is 100 mg/kg.

**Q.** What about the “average lung CFU reduction compared to untreated controls” value ([5]; 8 weeks, 100 and 200 mg/kg BID) of the same compound?
**A.** Its value is 1.5 log10 CFU.

**Q.** And the “effect on lung CFU compared to pretreatment control and untreated controls” value ([5]; lungs)?
**A.** The value was “not statistically significant”.

**Q.** What about the “lung bacterial load compared to the untreated control group” value [5, 16] of the same compound?
**A.** The value was “statistical significant reduction in the lung bacterial load”.

**Q.** And the “CFU reduction in spleen” value [5]?
**A.** Its value is “dose-dependent CFU reduction”.

**Q.** And the MIC [11]?
**A.** The MIC was 0.64 µg/mL (≈ 1.8 µM).

**Q.** What about the “MED99 (minimal effective dose giving 2-log reduction in lung bacterial load vs untreated)” value [8] of the same compound?
**A.** Its value is 100 mg/kg.

**Q.** And the “CFU reduction in lungs compared to untreated controls” value [15]?
**A.** Its value is “more than 2 log10 CFU”.

**Q.** What about the “CFU reduction in lungs” value ([12]; 100 mg/kg QD) of the same compound?
**A.** The value was 1.5 log10 CFU.

**Q.** What about the Cmax ([10]; C3HeB/FeJ, mouse, in vivo, 100 mg/kg) of the same compound?
**A.** Its Cmax is roughly 8600 ng/g.
